What follows are compounds tested against T1, human CYP11B2 (Homo sapiens, UniProt P19099) (assay: Inhibitory effect on hCYP11B2: aldosterone production in mitochondrial fraction of V79 cells stably expressing human CYP11B2, HTRF). Settings: 0.5 μmol/L deoxycorticosterone, 150 μmol/L NADPH, 1.5-2 hours at room temperature.
T1 construct: expressed in transfected cells; mitochondrial fraction
T1 sequence (P19099 25-503): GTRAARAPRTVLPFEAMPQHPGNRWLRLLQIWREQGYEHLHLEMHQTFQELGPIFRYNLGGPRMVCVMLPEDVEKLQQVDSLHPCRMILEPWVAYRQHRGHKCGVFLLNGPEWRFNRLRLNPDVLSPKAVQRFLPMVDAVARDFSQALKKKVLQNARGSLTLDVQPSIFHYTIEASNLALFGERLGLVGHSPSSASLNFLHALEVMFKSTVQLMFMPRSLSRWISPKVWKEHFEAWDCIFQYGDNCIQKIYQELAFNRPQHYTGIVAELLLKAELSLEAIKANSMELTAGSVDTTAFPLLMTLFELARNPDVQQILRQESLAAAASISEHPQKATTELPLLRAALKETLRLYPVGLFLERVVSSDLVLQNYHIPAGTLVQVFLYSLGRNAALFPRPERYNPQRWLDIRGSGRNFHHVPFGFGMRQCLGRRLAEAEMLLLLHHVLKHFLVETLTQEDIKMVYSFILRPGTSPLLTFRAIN
Assay type: biochemical
Experimental: Experimental Example 1 (Inhibitory Effect on hCYP11B2)
The pcDNA3.1-human CYP11B2 plasmid was transfected into a Chinese hamster lung fibroblast V79 cell line to produce a cell line stably expressing human CYP11B2 gene.
The cells were cultured and grown in the Dulbecco's modified Eagle's/Ham's medium supplemented with 10% fetal bovine serum and 1% G418 disulfate solution under the environment of 37° C., 95% air, and 5% CO2, and the grown cells were harvested.
Then, the cells were fractionated to obtain mitochondria by reference to a method described in Chabre et al. JCE & M 85 (11) 4060-68, 2000. In particular, the cells suspended in a 5 mmol/L Tris-HCl buffer (pH 7.4) containing 250 mmol/L sucrose were homogenized in a Teflon (Registered Trademark) Potter Elvehjem homogenizer, and then the suspension was centrifuged (800×g, 15 min.). The supernatant was separated and again centrifuged (10000×g, 15 min.) to obtain a pellet (mitochondrial fraction).
The mitochondrial fraction diluted with a buffer containing 10 mmol/L KH2PO4, 10 mmol/L Tris, 20 mmol/L KCl, 25 mmol/L sucrose, 5 mmol/L MgCl2, and 0.05% bovine serum albumin was dispensed to a 96-well plate. 0.5 μmol/L Deoxycorticosterone, 150 μmol/L NADPH and a compound of each concentration were added to each well, and incubated for 1.5-2 hours at room temperature to produce aldosterone. An amount of the produced aldosterone in the incubated solution was determined by using HTRF (Homogeneous Time Resolved Fluorescence) method.
IC50 (nmol/L) was calculated by analyzing the aldosterone production inhibition rate (%) of each concentration of compounds by non-linear regression to a logistic curve.

Structure (SMILES)	IC50
CC(C)NC(=O)CN1CCN(c2cncc(-c3ccc4cnn(C)c4c3)n2)CC1 [Example 49]	7.5 nM
CC(=O)N[C@H]1CC[C@@H](NC(=O)CN2CCN(c3cc(-c4ccc(Cl)cc4)cnn3)CC2)CC1 [Example 69]	12 nM
O=C(CN1CCN(c2cc(-c3ccc(Cl)cc3)cnn2)CC1)NC1CCS(=O)(=O)CC1 [Example 70]	6 nM
O=C(CN1CCN(c2cc(-c3ccc(F)cc3)cnn2)CC1)NC1CCC(N2CCOCC2)CC1 (centres unmarked) [Example 72]	11 nM
COc1ccccc1-c1cnnc(N2CCN(CC(=O)N[C@H]3CC[C@@H](N(C)C)CC3)CC2)c1 [Example 75]	41 nM
O=C(CN1CCN(c2cc(-c3ccc(F)cc3)cnn2)CC1)NC1CCN(CCO)CC1 [Example 78]	28 nM
CN(C)[C@H]1CC[C@H](NC(=O)CN2CCN(c3cc(-c4ccc(F)cc4)cnn3)CC2)CC1 [Example 79]	21 nM
CC(C)NC(=O)CN1CCN(c2cc(-c3ccc4c(c3)CCO4)cnn2)CC1 [Example 82]	14 nM
CC1CCC(c2cnnc(N3CCN(CC(=O)NC(C)C)CC3)c2)CC1 (centres unmarked) [Example 84]	32 nM
CC(C)NC(=O)CN1CCN(c2cc(-c3ccc(F)cc3)cnn2)CC1 [Example 85]	7 nM
CC(C)NC(=O)CN1CCN(c2cc(-c3ccc4ccccc4c3)cnn2)CC1 [Example 86]	8.4 nM
Cc1c(-c2ccc(F)cc2)cnnc1N1CCN(CC(=O)NC(C)C)CC1 [Example 92]	83 nM

Further compounds by falling IC50, results first:

IC50	Structure (SMILES)
103 nM	COCc1ccc(-c2cnnc(N3CCN(CC(=O)N[C@H]4CC[C@@H](N(C)C)CC4)CC3)c2)cc1 [Example 76]
102 nM	CC(C)NC(=O)CN1CCN(c2cc(-c3ccc(C#N)nc3)cnn2)CC1 [Example 83]
22 nM	Cc1ccccc1-c1cnnc(N2CCN(CC(=O)N[C@H]3CC[C@@H](N(C)C)CC3)CC2)c1 [Example 77]
19 nM	O=C(CN1CCN(c2cc(-c3ccc(F)cc3)cnn2)CC1)NCCN1CCS(=O)(=O)CC1 [Example 74]
18 nM	CNC(=O)CN1CCC(NC(=O)CN2CCN(c3cc(-c4ccc(F)cc4)cnn3)CC2)CC1 [Example 73]
18 nM	CC(C)NC(=O)CN1CCN(c2cc(-c3ccc(C(F)(F)F)cc3)cnn2)CC1 [Example 87]
17 nM	CN(C)[C@H]1CC[C@H](NC(=O)CN2CCN(c3cc(-c4ccc(Cl)cc4)cnn3)CC2)CC1 [Example 80]
16 nM	CS(=O)(=O)CCN1CCC(NC(=O)CN2CCN(c3cc(-c4ccc(F)cc4)cnn3)CC2)CC1 [Example 71]
9.1 nM	CC1CC=C(c2cnnc(N3CCN(CC(=O)NC(C)C)CC3)c2)CC1 (centres unmarked) [Example 81]
7.8 nM	CC(C)(C)OC(=O)N1CC[C@@H](NC(=O)CN2CCN(c3cc(-c4ccc(F)cc4)cnn3)CC2)[C@H](F)C1 [Example 88]

The compounds below were run against T2, human Cyp11B1 (Homo sapiens, UniProt P15538) (assay: Selectivity: IC50 against human Cyp11B2 compared with human Cyp11B1). Settings: ratio of IC50 values (nM).
T2 sequence (P15538 25-503): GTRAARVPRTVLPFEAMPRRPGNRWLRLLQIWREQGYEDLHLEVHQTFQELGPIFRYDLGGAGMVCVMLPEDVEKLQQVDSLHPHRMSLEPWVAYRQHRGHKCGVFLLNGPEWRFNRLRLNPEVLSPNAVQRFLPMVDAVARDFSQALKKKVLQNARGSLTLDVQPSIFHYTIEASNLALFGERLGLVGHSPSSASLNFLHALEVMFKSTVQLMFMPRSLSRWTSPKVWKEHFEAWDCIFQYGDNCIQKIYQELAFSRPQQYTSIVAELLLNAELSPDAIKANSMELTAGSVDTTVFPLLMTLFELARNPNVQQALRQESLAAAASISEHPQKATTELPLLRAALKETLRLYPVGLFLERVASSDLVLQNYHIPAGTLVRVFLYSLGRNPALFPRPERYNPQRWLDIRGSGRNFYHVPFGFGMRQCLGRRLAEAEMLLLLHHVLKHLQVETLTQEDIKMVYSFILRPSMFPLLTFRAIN
Assay type: biochemical

Structure (SMILES)	IC50 value against human Cyp11B2 versus human Cyp11B1 (selectivity)
CC(C)NC(=O)CN1CCN(c2cncc(-c3ccc4cnn(C)c4c3)n2)CC1 [Example 49]	100 times
